From patent US6653460B1 (priority 1996, dated 2003)

Assays:
[1] = system: calcium current (carried by barium) in neurohypophysial terminals; type: cell-based, rat
[2] = target: T1, class E calcium channels (192C cells) (Homo sapiens, UniProt Q15878); type: cell-based
T1 construct: expressed in transfected cells; host or cells: HEK 293 (192C cells)
T1 sequence (Q15878 whole entry): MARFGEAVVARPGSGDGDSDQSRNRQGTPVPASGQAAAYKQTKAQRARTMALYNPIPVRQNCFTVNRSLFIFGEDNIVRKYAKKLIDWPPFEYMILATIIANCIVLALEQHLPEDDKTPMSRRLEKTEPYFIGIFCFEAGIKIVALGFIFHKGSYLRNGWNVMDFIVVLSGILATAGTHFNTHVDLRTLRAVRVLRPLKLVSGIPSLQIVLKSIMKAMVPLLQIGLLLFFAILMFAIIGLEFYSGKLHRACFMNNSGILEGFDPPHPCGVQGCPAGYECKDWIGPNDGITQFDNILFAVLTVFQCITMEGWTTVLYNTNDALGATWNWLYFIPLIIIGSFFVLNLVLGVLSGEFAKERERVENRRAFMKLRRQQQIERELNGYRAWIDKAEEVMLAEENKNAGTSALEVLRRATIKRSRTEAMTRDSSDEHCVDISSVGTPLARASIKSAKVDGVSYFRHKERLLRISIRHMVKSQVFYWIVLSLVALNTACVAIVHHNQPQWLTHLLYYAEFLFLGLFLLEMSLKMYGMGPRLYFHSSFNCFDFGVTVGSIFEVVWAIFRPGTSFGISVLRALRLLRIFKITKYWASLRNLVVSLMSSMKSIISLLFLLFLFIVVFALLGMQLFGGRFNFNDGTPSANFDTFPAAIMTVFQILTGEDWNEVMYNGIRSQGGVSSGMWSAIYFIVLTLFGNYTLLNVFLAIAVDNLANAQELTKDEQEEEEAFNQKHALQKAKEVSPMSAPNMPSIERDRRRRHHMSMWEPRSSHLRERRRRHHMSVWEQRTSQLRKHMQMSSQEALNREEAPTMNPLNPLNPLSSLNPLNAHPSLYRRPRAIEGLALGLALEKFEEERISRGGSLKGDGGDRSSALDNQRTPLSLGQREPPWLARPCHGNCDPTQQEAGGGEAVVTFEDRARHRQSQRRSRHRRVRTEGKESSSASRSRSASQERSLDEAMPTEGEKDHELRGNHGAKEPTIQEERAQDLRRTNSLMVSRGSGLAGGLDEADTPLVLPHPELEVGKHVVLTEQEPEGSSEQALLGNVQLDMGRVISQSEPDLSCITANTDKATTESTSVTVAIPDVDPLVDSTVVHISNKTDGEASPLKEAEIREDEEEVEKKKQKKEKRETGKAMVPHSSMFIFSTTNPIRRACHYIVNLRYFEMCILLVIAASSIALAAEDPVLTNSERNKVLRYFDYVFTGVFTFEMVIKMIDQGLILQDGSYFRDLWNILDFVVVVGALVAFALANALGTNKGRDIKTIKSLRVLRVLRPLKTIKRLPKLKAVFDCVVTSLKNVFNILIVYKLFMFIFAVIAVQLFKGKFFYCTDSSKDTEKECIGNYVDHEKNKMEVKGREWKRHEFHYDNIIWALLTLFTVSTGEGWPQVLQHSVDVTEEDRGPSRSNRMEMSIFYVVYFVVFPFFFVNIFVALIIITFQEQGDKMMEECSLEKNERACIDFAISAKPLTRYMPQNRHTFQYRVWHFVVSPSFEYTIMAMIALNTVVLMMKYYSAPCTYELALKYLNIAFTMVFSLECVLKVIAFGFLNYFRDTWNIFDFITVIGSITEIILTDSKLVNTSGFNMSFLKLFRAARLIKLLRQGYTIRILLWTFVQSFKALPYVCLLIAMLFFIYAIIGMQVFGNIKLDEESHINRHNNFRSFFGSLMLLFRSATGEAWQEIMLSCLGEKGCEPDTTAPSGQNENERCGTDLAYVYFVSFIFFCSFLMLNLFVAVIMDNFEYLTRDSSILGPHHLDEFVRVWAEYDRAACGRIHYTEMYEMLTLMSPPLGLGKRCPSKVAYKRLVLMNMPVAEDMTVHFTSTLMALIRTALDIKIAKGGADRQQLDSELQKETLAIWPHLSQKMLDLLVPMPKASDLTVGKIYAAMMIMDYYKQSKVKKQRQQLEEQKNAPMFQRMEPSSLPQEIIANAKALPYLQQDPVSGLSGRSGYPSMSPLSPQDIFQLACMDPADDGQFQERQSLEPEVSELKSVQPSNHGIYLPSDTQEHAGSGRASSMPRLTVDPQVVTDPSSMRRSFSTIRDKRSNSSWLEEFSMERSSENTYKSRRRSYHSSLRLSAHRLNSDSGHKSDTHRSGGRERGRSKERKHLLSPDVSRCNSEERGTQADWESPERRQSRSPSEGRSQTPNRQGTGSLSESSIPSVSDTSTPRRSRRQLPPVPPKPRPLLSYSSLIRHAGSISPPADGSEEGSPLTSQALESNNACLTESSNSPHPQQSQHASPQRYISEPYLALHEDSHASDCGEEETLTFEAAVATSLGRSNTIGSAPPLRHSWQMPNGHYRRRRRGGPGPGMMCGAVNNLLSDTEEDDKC

## CSCC[C@@H]1NC(=O)[C@H](CC(C)C)NC(=O)[C@H](CCCNC(=N)N)NC(=O)[C@H](CO)NC(=O)[C@@H]2CSSC[C@@H]3NC(=O)[C@H](CO)NC(=O)CNC(=O)[C@H]([C@@H](C)O)NC(=O)[C@H](CSSC[C@H](N)C(=O)N[C@@H](CCCCN)C(=O)NCC(=O)N[C@@H](CCCCN)C(=O)NCC(=O)N[C@@H](C)C(=O)N[C@@H](CCCCN)C(=O)N2)NC(=O)[C@H](CSSC[C@@H](C(N)=O)NC(=O)[C@H](CCCCN)NC(=O)CNC(=O)[C@H](CO)NC(=O)[C@H](CCCNC(=N)N)NC3=O)NC(=O)[C@H](CC(=O)O)NC(=O)[C@H](Cc2ccc(O)cc2)NC1=O [SNX-111]
[1]
  block of current remaining after nicardipine: blocked part but not all of the remaining current
[2]
  sensitivity of depolarization evoked increase in internal calcium: resistant
